Measurements reported in US10945612B2, “Assessing endothelial function using a blood pressure cuff” (The Regents of the University of California, priority 2014, dated 2021).
Entries after “also recorded” stand apart in the source; their conditions may differ.

Key:
NO synthase = assay: Cuff single pulse waveforms after endothelial stimulation with NO synthase blocked by L-NAME; format: in vivo, human; settings: cuff inflated to 70 mm Hg; NO synthase blocked via L-NAME
From the text: Both the amplitude and slope of the rising edge of the pulse increase markedly after endothelial stimulation.
In an artery with intact endothelial function, both pulse height (maximal cross-sectional arterial area) and compliance (maximum slope of the rising edge) increase markedly over baseline. […] FIG. 4 illustrates how a five minute cuff occlusion and the ensuring reactive hyperemia lead to major increases in area change per pulse and the maximum derivative of the area per pulse. Both metrics return to baseline levels after 20 minutes. FIG. 5 confirms the repeatability of the protocol by illustrating the effects of a series of two cuff occlusion periods. We see from FIG. 6 that only a small slow drift in the measured quantities occurs when no reactive hyperemic stimulus is applied.

smooth muscle = settings: 400 μg sublingual dose; Feldman et al. (1979), Adams et al. (1998); cited from earlier work
brachial artery = assay: Cuff-based measurement of vasodilation (pulse amplitude relative to baseline) after sublingual nitroglycerin; format: in vivo, human
Method: Three individuals in the age-range of 28-38 were examined. All subjects had Framingham risk scores of 1% or less, and had no history of cardiovascular disease. Each individual was assessed at least three times before and after RH induced by five minutes of suprasystolic cuff occlusion. At least one additional measurement was made using the same protocol, except without cuff inflation. Sensitivity to a 0.4 mg dose of sublingual NG was assessed three times in two individuals.
Sensitivity to a 0.4 mg dose of sublingual NG was assessed three times in two individuals. In the analysis that follows, all of the datasets are pooled by stimulus. This addresses the question: Can the method measure changes in arterial tone due to vasorelaxatory stimuli and with what sensitivity?
A single quantity relating to the recorded pressure data, the pulse amplitude, was studied and it was posited that this is proportional to the arterial area. During the post stimulus interval, pressure data from the cuff were recorded approximately every 80 seconds, for a period of 30 seconds. During each recording interval, the cuff was inflated to 70 mm Hg, which was always below the measured diastolic pressure of the subject. To quantify the observed response, the mean of the pulse quantity (in this case, amplitude) during the response interval was divided by the mean value of the same quantity during the baseline interval. FIG. 10 illustrates the results.
v) The stimulus is applied. This is either 1-5 min of cuff occlusion to suprasystolic pressure Ps (for studies of endothelial function) or a dose of sublingual NG (for studies of endothelium-independent vasodilation).
(vi) After Tp=45 s have elapsed following cuff release or drug administration, a series of up to Nr=10 repeat measurement intervals ensue. In each interval, the cuff is inflated to Pm for Tm seconds, after which it is deflated for Tw seconds. This large number of repeat measurements (Nr)) is required only when one wishes to record the return of the vessel toward baseline.
[formula] and reported, e.g., to the user. […]

Compound	compliance (maximum slope of the rising edge) increase over baseline after endothelial stimulation (NO synthase)	pulse height (maximal cross-sectional arterial area) increase over baseline after endothelial stimulation (NO synthase)	smooth muscle dilation (smooth muscle)	cDmax % (brachial artery; 400 μg sublingual NG, maximal vasodilation by the cuff-based method, relative to baseline) [%]	Mean ± SEM of maximum response over all data sets (dilation response) (brachial artery; 400 μg sublingual NG, ratio to baseline, pooled data sets)	Mean ± SEM of maximum Response over all data sets (amplitude response) (brachial artery; 0.4 mg sublingual NG, mean pulse amplitude in response interval divided by baseline, cuff at 70 mm Hg, pooled data sets)
COC(=O)[C@@H](N)CCCNC(=N)N[N+](=O)[O-] [L-NAME]	greatly attenuates this response; also recorded: greatly attenuated	greatly attenuates this response; also recorded: greatly attenuated	–	–	–	–
O=[N+]([O-])OCC(CO[N+](=O)[O-])O[N+](=O)[O-] [NG, nitroglycerin]	–	–	maximal smooth muscle dilation	70	1.70 ± 0.036	1.70 ± 0.036
